Assay results: PubChem BioAssay AID179 (DTP/NCI, 2004)
Active and inactive are the calls of the source.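 The calls were made as follows: active = compounds giving half or more protection of infected cells from virus-caused growth loss, again on retest; inactive = the rest.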 Where a SMILES comes first, the peptide text is derived from it.

System: CEM cells HIV-1 protection, formazan growth assay
Assay: NCI AIDS Antiviral Assay
Conditions: for IC50: measured here: growth of uninfected CEM cells
In short: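 Five concentrations of each compound were applied to infected and uninfected human CEM cells. Protection from HIV-1 was judged from growth measured with a soluble formazan assay.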

SMILES	EC50	IC50	outcome
O=C(Nc1ccc(Cl)cc1)OCC12COCN1COC2	204 µM	257 µM	
CN(C)CC(/C(Cc1ccccc1)=N\NC(=O)c1ccncc1)c1ccccc1 (stereo unspecified)	> 245 µM	93.3 µM	
NC(=O)N/N=C1\CCc2ccccc2C1	> 93.3 µM	> 93.3 µM	
CC12CCC(C1)C(O)(c1ccccc1)C2(O)c1ccccc1 (stereo unspecified)	> 60.3 µM	44.7 µM	
O=C1C(C=NC(=S)c2ccccc2)=C(O)c2ccccc21	> 200 µM	166 µM	
COc1ccc(-c2c3c([nH]c(=S)c2C#N)CCC3)cc1	178 µM	> 200 µM	
CC1(C)CC(=O)C2=C(C1)Nc1ccccc1S2			inactive
Cc1ccc(SCC(O)=C2C(=O)CCCC2=O)cc1	> 245 µM	158 µM	
CCOC(=O)/C(C#N)=C/c1ccc(N(C)C)cc1	> 77.6 µM	> 77.6 µM	
C=C1C(=O)OC(CCCCCCCCCCCCC)C1C(=O)O (stereo unspecified)	> 3.24 µM	> 3.24 µM	
CC[C@@H]1C[C@H]2CC3c4c(c5cc(OC)ccc5n4C)CCN(C2)C31			inactive
Oc1ccc2ccccc2c1N=Nc1ccsc1	> 20.4 µM	> 20.4 µM	
Cc1cn(C(Cc2ccccc2)OCCO)c(=O)[nH]c1=O (stereo unspecified)	> 200 µM	> 200 µM	
Cc1cn2c(n1)Nc1sc3c(c1C2)CCCC3	> 200 µM	30.2 µM	
COc1ccc2c(c1)C(=O)C1NC(=O)NC(=O)C1(Br)N2 (stereo unspecified)	> 200 µM	> 200 µM	
CCCCNC(=O)CCN(C(=O)O)S(=O)(=O)c1ccc(NC(=O)c2ccccc2)cc1	> 112 µM	> 112 µM	
COc1cc(OC)c2c(=O)c(OC)c(-c3ccc4c(c3)OCO4)oc2c1OC	> 200 µM	> 200 µM	
Cc1cc2c(=O)c3ccc(Cl)cc3[nH]c2c(C(N)=O)c1C			inactive
CC(Cn1c(=O)oc2ccccc21)N(C)C (stereo unspecified)	> 200 µM	> 200 µM	
Cc1ccc(S(=O)(=O)N(CC(=O)O)c2ccccc2)cc1			inactive
CN(C)c1ccc2c(c1)-c1cc(N(C)C)ccc1C2=C/C=C1\C(=O)c2ccccc2C1=C(C#N)C#N	> 15.5 µM	> 15.5 µM	

SMILES	EC50	IC50	outcome
O=[N+]([O-])c1ccc(C2=NOC3COC4C=CC=CC4OCC23)cc1 (stereo unspecified)	> 30.2 µM	> 30.2 µM	
OCC(O)C(O)C(O)c1nc2ccccc2s1 (stereo unspecified)	> 977 µM	120 µM	
COc1ccc(NC(=O)CC(=O)n2nc(-c3ccccc3)c(N=Nc3ccc(C)cc3)c2-c2ccccc2)cc1	> 9.77 µM	> 9.77 µM	
CCOC(=O)c1ccc(-c2cc(C)[nH]n2)[nH]1	> 200 µM	77.6 µM	
CCOC(=O)N1CC(C)=C(C)CN1C(=O)Nc1ccc(Cl)c(Cl)c1	> 200 µM	81.3 µM	
N#CCN1C(=O)c2cc([N+](=O)[O-])cc3cc([N+](=O)[O-])cc(c23)C1=O			inactive
CC(=O)OCC1=C(C(=O)O)N2C(=O)C(NC(=O)CSc3ccncc3)C2SC1 (stereo unspecified)	61.7 µM	631 µM	
CC1(C)CNC[C@@]2(C)OCCO[C@@]3(C)CNCC(C)(C)[N-]C(=O)[C@@](C)(CNCC(C)(C)[N-]C3=O)OCCO[C@](C)(CNCC(C)(C)[N-]C2=O)C(=O)[N-]1.[Cu+2].[Cu+2]	> 200 µM	> 200 µM	
C=CC1CN2CCC1CC2C(O)c1ccnc2ccc(OC)cc12 (stereo unspecified)	> 200 µM	> 100 µM	
C=C1C(=O)O[C@H]2C3OC3(C)CC/C=C(/C(=O)OC)[C@@H](OC(C)=O)[C@H](OC(=O)C3(C)OC3C)[C@H]12 (stereo partly specified)			inactive
Cc1ccc(N=NN(C)C(C)C(O)Cc2ccccc2)cc1 (stereo unspecified)	> 200 µM	77.6 µM	
Cn1c(=O)c2c(nc(CCCCCc3nc4c(c(=O)n(C)c(=O)n4C)n3C)n2C)n(C)c1=O	> 200 µM	> 200 µM	
CCN1CCC(O)(c2ccc(Oc3ccc(F)cc3)cc2)C(C(=O)c2ccc(Oc3ccc(F)cc3)cc2)C1 (stereo unspecified)	> 200 µM	9.33 µM	
Oc1ccc2ccccc2c1CN1CCOCC1	132 µM	186 µM	
CCOC(=O)c1[nH]c(COC(C)=O)c2c1CCCCCCCCCC2			inactive
CN1COc2c(n(C)c(=O)[nH]c2=O)C1	> 200 µM	120 µM	
NC(=O)CC1C(CO)OC(n2ccc(=O)[nH]c2=O)C1O (stereo unspecified)	> 200 µM	> 200 µM	
NCCCNCCSSCCCCS(=O)O			inactive
CCC(C)C(NC(=O)CNC(=O)C(Cc1cnc[nH]1)NC(=O)C(NC(=O)C(CS)NC(=O)C(CCC(N)=O)NC(=O)C(NC(=O)C(NC(=O)C(CO)NC(=O)C(NC(=O)C(CC(N)=O)NC(=O)C(NC(=O)C(CS)NC(=O)C1CCCN1C(=O)CNC(=O)C(NC(=O)CN)C(C)O)C(C)O)C(C)C)C(C)O)C(C)C)C(C)O)C(=O)NC(CCCN=C(N)N)C(N)=O (stereo unspecified) (H-GTGPCTNVSTVQCTHGIR-NH2; configuration not given here)	> 50.1 µM	> 50.1 µM	
COc1ccc(OC)c2c1C=CC(Br)=CC2	> 200 µM	53.7 µM	
FC(F)(F)c1nc(Cl)c2ncsc2n1	> 200 µM	2.4 µM	
